Reference: paper PMC4203866, “Identification of plant-derived natural products as potential inhibitors of the Mycobacterium tuberculosis proteasome” (BMC Complementary and Alternative Medicine, 2014)
Where a SMILES comes first, the peptide text is derived from it. The star is where a group is joined. Cbz = O=C(OCc1ccccc1)*

What follows are compounds tested against T1, Mtb proteasome (Mycobacterium tuberculosis, UniProt P9WHT9) (assay: biochemical). Settings: not given.
T1 construct: Proteasome activity of the supernatants was assessed; endogenous in cells; host or cells: Mycobacterium tuberculosis H37Ra (crude lysate supernatant)
T1 sequence (P9WHT9 58-291): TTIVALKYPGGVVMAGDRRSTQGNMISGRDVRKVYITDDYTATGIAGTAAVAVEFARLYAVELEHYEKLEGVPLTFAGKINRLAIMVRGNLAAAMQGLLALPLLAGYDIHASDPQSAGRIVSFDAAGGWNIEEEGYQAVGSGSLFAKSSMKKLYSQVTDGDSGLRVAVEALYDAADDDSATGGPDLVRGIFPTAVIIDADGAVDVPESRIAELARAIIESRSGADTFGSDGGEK
T1 sequence (P9WHU1 whole entry partner): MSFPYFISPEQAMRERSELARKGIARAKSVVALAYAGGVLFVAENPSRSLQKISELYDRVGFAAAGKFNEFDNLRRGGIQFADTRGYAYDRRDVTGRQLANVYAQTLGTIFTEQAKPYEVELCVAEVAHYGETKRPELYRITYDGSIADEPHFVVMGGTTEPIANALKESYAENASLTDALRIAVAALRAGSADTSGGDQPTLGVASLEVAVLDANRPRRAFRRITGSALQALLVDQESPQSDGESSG

SMILES | IC50 [µM] | IA: inhibitory activity of Mtb proteasome [%]
CC(C)C[C@@H](C=O)NC(=O)[C@H](CC(C)C)NC(=O)[C@H](CC(C)C)NC(=O)OCc1ccccc1 [MG132, reference compound] (Cbz-Leu-Leu-Leu-aldehyde) | 28 | –
C=C1C(=O)O[C@@H]2C[C@@]3(C)CCC[C@H](C)C3=C[C@H]12 [alantolactone] | – | 32.12
COc1c(O)cc2oc3cc(O)c(CC=C(C)C)c(O)c3c(=O)c2c1CC=C(C)C [alpha mangostin] | – | 64.16
CC(C)(O)[C@H]1CC[C@@](C)([C@H]2[C@@H](O)C[C@@]3(C)[C@@H]4C[C@H](O[C@@H]5O[C@H](CO)[C@@H](O)[C@H](O)[C@H]5O)[C@H]5C(C)(C)[C@@H](O[C@@H]6OC[C@@H](O)[C@H](O)[C@H]6O)CC[C@@]56C[C@@]46CC[C@]23C)O1 [astragaloside A] | – | 23.59
O=c1cc(-c2ccccc2)oc2cc(O)c(O)c(O)c12 [baicalein] | 45.7 | –
O=C(O)[C@H]1O[C@@H](Oc2cc3oc(-c4ccccc4)cc(=O)c3c(O)c2O)[C@H](O)[C@@H](O)[C@@H]1O [baicalin] | 83.5 | –
C=C(C)[C@@H]1CC[C@]2(CO)CC[C@]3(C)[C@H](CC[C@@H]4[C@@]5(C)CC[C@H](O)C(C)(C)[C@@H]5CC[C@]43C)[C@@H]12 [betulinol] | – | 6.52
C=C1C[C@@]2(O)O[C@@]3(C[C@H]2C(C)C)[C@@H](C)CC[C@@H]13 [curcumol] | – | 34.66
C=C1CC[C@@H]2[C@](C)(CO)[C@H](O)CC[C@@]2(C)[C@@H]1/C=C/C1=CCOC1=O [dehydroandrographolide] | – | 32.67
COc1cc2c(c(OC)c1OC)-c1c(cc(OC)c(OC)c1OC)C[C@H](C)[C@H](C)C2 [deoxyschizandrin] | – | 23.86
COc1cc(C)c(C(=O)Oc2cc(C)c(C(=O)O)c(O)c2C)c(OC)c1C [diffractic acid] | – | 0.00
Cc1cc(O)c2c(c1)C(=O)c1cc(O)cc(O)c1C2=O [emodin] | 81.1 | –
O=C(O[C@@H]1Cc2c(O)cc(O)cc2O[C@@H]1c1cc(O)c(O)c(O)c1)c1cc(O)c(O)c(O)c1 [epigallocatechin gallate] | – | 45.21
COc1ccc([C@H]2OC[C@H]3[C@@H]2CO[C@H]3c2ccc(O[C@@H]3O[C@H](CO)[C@@H](O)[C@H](O)[C@H]3O)c(OC)c2)cc1OC [forsythin] | – | 20.02
COc1cc2ccc(=O)oc2c(O[C@@H]2O[C@H](CO)[C@@H](O)[C@H](O)[C@H]2O)c1O [fraxin] | – | 0.00
O=c1oc2c(O)c(O)cc3c(=O)oc4c(O)c(O)cc1c4c23 [gallogen] | – | 62.50
COc1ccc2cc1Oc1ccc(cc1)C[C@H]1c3cc(c(OC)cc3CCN1C)Oc1c(OC)c(OC)cc3c1[C@H](C2)N(C)CC3 [hanfangchin A] | – | 0.00
COc1ccc2cc1Oc1ccc(cc1)C[C@H]1c3cc(c(OC)cc3CCN1C)Oc1c(O)c(OC)cc3c1[C@H](C2)N(C)CC3 [hanfangchin B] | – | 0.00
COc1c(O)cc2oc(-c3ccc(O)cc3)cc(=O)c2c1O [hispidulin] | 58.3 | –
COc1ccc(-c2oc3c(CC=C(C)C)c(O[C@@H]4O[C@H](CO)[C@@H](O)[C@H](O)[C@H]4O)cc(O)c3c(=O)c2O[C@@H]2O[C@@H](C)[C@H](O)[C@@H](O)[C@H]2O)cc1 [icarrin, icariin] | 88.7 | –
O=C(/C=C/c1ccc(O)cc1)c1ccc(O)cc1O [isoliquiritigenin] | 63.9 | –
O=c1c(O)c(-c2ccc(O)cc2)oc2cc(O)cc(O)c12 [kaempferol] | 107 | –
O=c1c(O)c(-c2cc(O)c(O)c(O)c2)oc2cc(O)cc(O)c12 [myricetin] | 55.4 | –

Same assay, conditions: 0.5 h, read-out: IA: inhibitory activity of Mtb proteasome

SMILES | inhibition at 200 µM [%]
O=C1c2cccc(O)c2C(=O)c2c(O)cccc21 [1,8-dihydroxyanthraquinone] | 36.3
O=C1c2ccccc2C(=O)c2c1ccc(O)c2O [alizarin] | 0
CC(C)=CC[C@H](O)C1=CC(=O)c2c(O)ccc(O)c2C1=O [alkannin] | 52.4
O=C1c2cccc(O)c2C(=O)c2c(O)cc(CO)cc21 [aloe-emodin] | 34.3
N#C[C@H](O[C@@H]1O[C@H](CO[C@@H]2O[C@H](CO)[C@@H](O)[C@H](O)[C@H]2O)[C@@H](O)[C@H](O)[C@H]1O)c1ccccc1 [amygdalin] | 1.87
C=C1CC[C@@H]2[C@](C)(CO)[C@H](O)CC[C@@]2(C)[C@@H]1C/C=C1/C(=O)OC[C@H]1O [andrographolide] | 0
O=c1cc(-c2ccc(O)cc2)oc2cc(O)cc(O)c12 [apigenin] | 0
COc1cc(C[C@H]2C(=O)OC[C@@H]2Cc2ccc(OC)c(OC)c2)ccc1O [arctigenin] | 27.1
C[C@H]1[C@H](OC(=O)CCC(=O)O)O[C@@H]2O[C@@]3(C)CC[C@H]4[C@H](C)CC[C@@H]1[C@@]24OO3 [artesunate, reference compound] | 13.8
O=c1cc(-c2ccccc2)oc2cc(O)c(O)c(O)c12 [baicalein] | > 65
O=C(O)[C@H]1O[C@@H](Oc2cc3oc(-c4ccccc4)cc(=O)c3c(O)c2O)[C@H](O)[C@@H](O)[C@@H]1O [baicalin] | > 65
Cc1cc(O)c2c(c1)C(=O)c1cc(O)cc(O)c1C2=O [emodin] | > 65
COc1c(O)cc2oc(-c3ccc(O)cc3)cc(=O)c2c1O [hispidulin] | > 65
COc1ccc(-c2oc3c(CC=C(C)C)c(O[C@@H]4O[C@H](CO)[C@@H](O)[C@H](O)[C@H]4O)cc(O)c3c(=O)c2O[C@@H]2O[C@@H](C)[C@H](O)[C@@H](O)[C@H]2O)cc1 [icarrin, icariin] | > 65
O=C(/C=C/c1ccc(O)cc1)c1ccc(O)cc1O [isoliquiritigenin] | > 65
O=c1c(O)c(-c2ccc(O)cc2)oc2cc(O)cc(O)c12 [kaempferol] | > 65
O=c1c(O)c(-c2cc(O)c(O)c(O)c2)oc2cc(O)cc(O)c12 [myricetin] | > 65

Same assay, conditions: read-out: IA: inhibitory activity of Mtb proteasome

SMILES | inhibition at 100 µM [%]
CC(C)C[C@@H](C=O)NC(=O)[C@H](CC(C)C)NC(=O)[C@H](CC(C)C)NC(=O)OCc1ccccc1 [MG132, reference compound] (Cbz-Leu-Leu-Leu-aldehyde) | 79.7
